Values of other authors in patent US9694080B2, “Polymer release system” (EGALET LTD., priority 2001, dated 2017).

SMILES | dose linearity range (literature) [mg] | absorption in the large intestine, share of the total absorption (timed-release capsules, Nolte et al) | beta effect relative to S(−) (β1 and β2) | α effect relative to S(−) (α-adrenoceptor)
COc1ccccc1OCCNCC(O)COc1cccc2[nH]c3ccccc3c12 (stereo not shown) [Carvedilol] | 6.25 to 50 | approximately 10% |  | 
COc1ccccc1OCCNC[C@@H](O)COc1cccc2[nH]c3ccccc3c12 [R(+)] |  |  | 1/100 | the same α effect
